Source: ChEMBL document CHEMBL3431459, “Roche carnitine palmitoyltransferase modulator screening data (supplementary data associated with the publication CHEMBL2216752)”

Legend:
[1] = target: T1, Carnitine O-palmitoyltransferase 1, muscle isoform (Homo sapiens, UniProt Q92523); experiment: SUPPLEMENTARY: Inhibition of Carnitine palmitoyltransferase 1, muscle isoform; set-up: species or system Muscle tissue
T1 sequence (Q92523 whole entry): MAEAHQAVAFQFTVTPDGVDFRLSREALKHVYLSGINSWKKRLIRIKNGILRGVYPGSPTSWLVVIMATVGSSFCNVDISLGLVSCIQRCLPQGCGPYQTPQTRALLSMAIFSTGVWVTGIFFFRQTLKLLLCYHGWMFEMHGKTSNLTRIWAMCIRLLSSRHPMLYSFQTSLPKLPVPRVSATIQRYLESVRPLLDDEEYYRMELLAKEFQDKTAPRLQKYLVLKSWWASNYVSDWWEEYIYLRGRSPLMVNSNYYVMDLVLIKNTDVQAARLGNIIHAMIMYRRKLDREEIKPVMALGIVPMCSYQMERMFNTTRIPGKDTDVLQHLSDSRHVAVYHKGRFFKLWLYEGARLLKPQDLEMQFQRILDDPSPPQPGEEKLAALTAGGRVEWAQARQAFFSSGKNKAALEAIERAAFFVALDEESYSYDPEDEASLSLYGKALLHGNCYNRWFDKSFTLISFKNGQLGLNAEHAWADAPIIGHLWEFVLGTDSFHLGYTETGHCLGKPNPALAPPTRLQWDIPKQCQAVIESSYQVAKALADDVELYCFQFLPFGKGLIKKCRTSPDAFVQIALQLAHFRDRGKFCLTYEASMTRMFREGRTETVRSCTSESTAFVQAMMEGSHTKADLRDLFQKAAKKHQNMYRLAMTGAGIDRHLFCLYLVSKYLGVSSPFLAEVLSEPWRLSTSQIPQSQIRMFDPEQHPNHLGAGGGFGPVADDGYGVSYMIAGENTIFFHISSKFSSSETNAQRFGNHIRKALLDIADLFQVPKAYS

[2] = target: T2, Carnitine O-palmitoyltransferase 2, mitochondrial (Homo sapiens, UniProt P23786); experiment: (§1) SUPPLEMENTARY: Inhibition of Carnitine palmitoyltransferase 2
T2 sequence (P23786 whole entry): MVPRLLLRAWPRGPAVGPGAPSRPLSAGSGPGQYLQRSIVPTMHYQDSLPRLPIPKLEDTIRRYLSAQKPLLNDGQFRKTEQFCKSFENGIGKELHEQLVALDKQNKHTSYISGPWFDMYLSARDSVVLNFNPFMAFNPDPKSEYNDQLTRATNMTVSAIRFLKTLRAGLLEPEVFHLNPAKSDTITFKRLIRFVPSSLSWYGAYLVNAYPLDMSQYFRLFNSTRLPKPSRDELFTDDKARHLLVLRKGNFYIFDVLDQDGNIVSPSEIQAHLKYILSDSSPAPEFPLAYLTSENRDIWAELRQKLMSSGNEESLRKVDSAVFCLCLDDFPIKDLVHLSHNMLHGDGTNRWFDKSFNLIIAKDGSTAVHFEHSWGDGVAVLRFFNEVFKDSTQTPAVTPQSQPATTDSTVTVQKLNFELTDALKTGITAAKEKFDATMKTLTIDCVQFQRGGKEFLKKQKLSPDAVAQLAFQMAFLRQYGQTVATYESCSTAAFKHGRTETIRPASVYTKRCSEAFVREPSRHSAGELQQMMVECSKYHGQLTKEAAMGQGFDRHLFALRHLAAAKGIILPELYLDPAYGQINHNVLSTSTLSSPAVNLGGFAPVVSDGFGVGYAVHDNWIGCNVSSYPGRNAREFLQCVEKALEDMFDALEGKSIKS

[3] = target: T3, Carnitine O-palmitoyltransferase 2, mitochondrial (Rattus norvegicus, UniProt P18886); experiment: as §1
T3 sequence (P18886 whole entry): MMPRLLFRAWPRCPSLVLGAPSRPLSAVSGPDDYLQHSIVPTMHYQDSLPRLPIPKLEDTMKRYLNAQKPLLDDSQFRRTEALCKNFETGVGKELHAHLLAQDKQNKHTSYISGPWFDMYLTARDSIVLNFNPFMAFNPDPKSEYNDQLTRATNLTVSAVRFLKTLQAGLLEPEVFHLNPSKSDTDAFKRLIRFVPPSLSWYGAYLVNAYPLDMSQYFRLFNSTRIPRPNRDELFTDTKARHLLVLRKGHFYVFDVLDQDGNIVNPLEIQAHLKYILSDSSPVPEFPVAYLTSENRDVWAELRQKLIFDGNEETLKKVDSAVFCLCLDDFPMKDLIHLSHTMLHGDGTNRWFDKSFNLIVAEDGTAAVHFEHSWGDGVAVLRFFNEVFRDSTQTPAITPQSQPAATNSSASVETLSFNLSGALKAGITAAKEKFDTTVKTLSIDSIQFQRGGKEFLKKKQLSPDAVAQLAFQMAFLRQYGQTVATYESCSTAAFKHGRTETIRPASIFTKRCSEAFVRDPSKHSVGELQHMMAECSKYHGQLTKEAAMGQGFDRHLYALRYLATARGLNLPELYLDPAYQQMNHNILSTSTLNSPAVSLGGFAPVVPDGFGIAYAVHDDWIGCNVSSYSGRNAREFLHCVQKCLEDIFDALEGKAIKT

[4] = target: T4, Carnitine O-palmitoyltransferase 1, liver isoform (Homo sapiens, UniProt P50416); experiment: (§2) SUPPLEMENTARY: Inhibition of Carnitine palmitoyltransferase 1, liver isoform
T4 sequence (P50416 whole entry): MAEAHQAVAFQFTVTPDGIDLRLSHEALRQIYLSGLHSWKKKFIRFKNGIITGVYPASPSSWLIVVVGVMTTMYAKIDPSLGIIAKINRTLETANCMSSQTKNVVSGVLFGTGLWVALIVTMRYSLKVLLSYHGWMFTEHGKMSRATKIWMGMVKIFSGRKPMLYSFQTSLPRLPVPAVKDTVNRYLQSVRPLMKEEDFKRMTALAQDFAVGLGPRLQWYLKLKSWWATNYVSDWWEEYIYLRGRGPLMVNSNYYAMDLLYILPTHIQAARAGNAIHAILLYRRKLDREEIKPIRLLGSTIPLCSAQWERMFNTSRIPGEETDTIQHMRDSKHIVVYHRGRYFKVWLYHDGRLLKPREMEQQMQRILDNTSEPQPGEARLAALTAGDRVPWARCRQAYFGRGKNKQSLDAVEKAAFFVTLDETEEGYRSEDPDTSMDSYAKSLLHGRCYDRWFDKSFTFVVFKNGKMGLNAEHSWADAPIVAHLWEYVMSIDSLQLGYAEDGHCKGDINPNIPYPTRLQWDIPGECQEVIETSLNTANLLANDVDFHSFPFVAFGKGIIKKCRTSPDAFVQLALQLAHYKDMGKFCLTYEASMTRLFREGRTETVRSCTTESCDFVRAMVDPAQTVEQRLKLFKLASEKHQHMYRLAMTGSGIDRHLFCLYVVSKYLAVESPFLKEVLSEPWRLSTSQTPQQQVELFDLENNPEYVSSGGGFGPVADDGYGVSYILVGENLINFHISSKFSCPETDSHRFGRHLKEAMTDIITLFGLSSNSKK

[5] = target: T5, Carnitine O-palmitoyltransferase 1, liver isoform (Rattus norvegicus, UniProt P32198); experiment: as §2
T5 sequence (P32198 whole entry): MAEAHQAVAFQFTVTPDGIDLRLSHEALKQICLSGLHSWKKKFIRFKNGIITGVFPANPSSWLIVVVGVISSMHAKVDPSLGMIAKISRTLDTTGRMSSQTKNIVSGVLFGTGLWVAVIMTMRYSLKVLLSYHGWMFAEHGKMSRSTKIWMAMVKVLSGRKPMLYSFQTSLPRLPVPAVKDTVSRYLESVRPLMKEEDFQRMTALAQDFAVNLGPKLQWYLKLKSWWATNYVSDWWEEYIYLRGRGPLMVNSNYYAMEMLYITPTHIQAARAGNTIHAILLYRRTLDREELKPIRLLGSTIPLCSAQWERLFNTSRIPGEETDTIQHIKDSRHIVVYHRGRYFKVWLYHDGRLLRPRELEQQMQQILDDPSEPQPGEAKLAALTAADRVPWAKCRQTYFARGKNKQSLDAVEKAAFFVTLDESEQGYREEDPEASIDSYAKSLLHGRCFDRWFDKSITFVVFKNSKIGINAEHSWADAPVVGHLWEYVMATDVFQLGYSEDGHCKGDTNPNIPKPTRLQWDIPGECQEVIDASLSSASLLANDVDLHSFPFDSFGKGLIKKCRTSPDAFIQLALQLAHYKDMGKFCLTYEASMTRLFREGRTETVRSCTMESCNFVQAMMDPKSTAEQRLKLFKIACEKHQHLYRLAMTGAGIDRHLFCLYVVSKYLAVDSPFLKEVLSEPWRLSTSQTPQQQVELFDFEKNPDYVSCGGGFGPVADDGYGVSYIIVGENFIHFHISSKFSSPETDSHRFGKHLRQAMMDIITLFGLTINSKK

| Structure (SMILES) | IC50 [1] | IC50 [2] | IC50 [3] | IC50 [4] | IC50 [5] |
| --- | --- | --- | --- | --- | --- |
| O=C([C@H]1CCCCN1C(=O)COc1ccccc1)N1CCN(c2cccc(Cl)c2)CC1 | > 100000 nM | 544 nM | 291 nM | 151 nM | 233 nM |
| O=C(COc1ccccc1)OCc1cc(-c2nc([C@H]3CCCCN3C(=O)COc3ccccc3)cs2)ccn1 | 17800 nM | 44800 nM | > 100000 nM | 503 nM | 1050 nM |
| COc1ccc(Cl)cc1S(=O)(=O)N(c1cc(C(=O)Nc2nc(CC(=O)O)cs2)cc2c1OCO2)C(C)C | 2970 nM | 13800 nM | > 100000 nM | 224 nM | 188 nM |
| COCCN(c1cc(C(=O)Nc2ccn(CC(=O)O)n2)cc2c1OCO2)S(=O)(=O)c1cc(Cl)ccc1OC | 5320 nM | > 100000 nM | > 100000 nM | 337 nM | 792 nM |
| COc1ccc(-n2nnc([C@H]3CCCCN3C(=O)COc3ccccc3)n2)cc1 | > 100000 nM | 24200 nM | > 100000 nM | 159 nM | 103 nM |
| O=C(COc1ccccc1)NS(=O)(=O)Cc1ccc(-c2nc([C@H]3CCCCN3C(=O)COc3ccccc3)cs2)cc1 | 2290 nM | 2380 nM | 6580 nM | 214 nM | 361 nM |
| COCCN(c1cc(C(=O)Nc2ccc(CC(=O)O)cc2)cc2c1OCO2)S(=O)(=O)c1cc(Cl)ccc1OC | 1530 nM | > 100000 nM | > 100000 nM | 622 nM | 453 nM |
| COc1ccc(Cl)cc1S(=O)(=O)N(CCC(=O)O)c1cc(C(=O)Nc2ccccc2)cc2c1OCO2 | 2810 nM | > 100000 nM | > 100000 nM | 175 nM | 1720 nM |
| COc1ccc(Cl)cc1S(=O)(=O)N(C)c1cc(C(=O)Nc2ccc(CC(=O)O)cc2)cc2c1OCO2 | 857 nM | > 100000 nM | > 100000 nM | 391 nM | 362 nM |
| O=C([C@H]1CCCCN1C(=O)COc1ccccc1)N1CCN(c2cc(Cl)cc(Cl)c2)CC1 | > 100000 nM | 3130 nM | 961 nM | 198 nM | 388 nM |
| COc1ccc(Cl)cc1S(=O)(=O)N1CCCc2ccc(NC(=O)c3ccc(CC(=O)O)cc3)cc21 | 1820 nM | > 100000 nM | > 100000 nM | 388 nM | 658 nM |
| COc1ccc(Cl)cc1S(=O)(=O)N1C[C@@H](C(=O)O)Oc2ccc(C(=O)Nc3ccccc3)cc21 | 16900 nM | > 100000 nM | > 100000 nM | 40.2 nM | 14.6 nM |
| COc1ccc(Cl)cc1S(=O)(=O)N1C[C@H](C(=O)O)Oc2ccc(C(=O)Nc3ccccc3)cc21 | 31900 nM | > 100000 nM | > 100000 nM | 46.6 nM | 15.3 nM |
| COc1ccc(Cl)cc1S(=O)(=O)c1n[nH]c2ccc(C(=O)Nc3ccccc3)cc12 | > 100000 nM | > 100000 nM | > 100000 nM | 172 nM | 102 nM |
| COc1ccc(Cl)cc1[S+]([O-])c1c[nH]c2ccc(C(=O)Nc3ccccc3)cc12 (stereo not given) | > 100000 nM | > 100000 nM | > 100000 nM | > 10000 nM | > 10000 nM |
| COc1ccc(Cl)cc1S(=O)(=O)c1c2cc(C(=O)Nc3ccccc3)ccc2nn1C | > 100000 nM | > 100000 nM | > 100000 nM | 162 nM | 381 nM |
| O=C([C@H]1CCCCN1C(=O)COc1ccccc1)N1CCN(c2ccccn2)CC1 | > 100000 nM | 1030 nM | 3350 nM | 238 nM | 588 nM |
| O=C(COc1ccccc1)N1CCCC[C@@H]1C#Cc1ccc2[nH]cnc2c1 | 7310 nM | > 100000 nM | > 100000 nM | 130 nM | 72.2 nM |
| COCCN(c1cc(C(=O)Nc2ncc(CC(=O)O)s2)cc2c1OCO2)S(=O)(=O)c1cc(Cl)ccc1OC | 914 nM | > 100000 nM | > 100000 nM | 315 nM | 157 nM |
| CS(=O)(=O)c1ccc(-n2nnc([C@H]3CCCCN3C(=O)COc3ccccc3)n2)cc1 | > 100000 nM | 17400 nM | > 100000 nM | 123 nM | 607 nM |
| COc1ccc(Cl)cc1S(=O)(=O)N(c1cc(C(=O)Nc2ccn(CC(=O)O)n2)cc2c1OCO2)C(C)C | 5280 nM | > 100000 nM | > 100000 nM | 1070 nM | 6020 nM |
